In patent US20100075907A1, “NEUROMEDIN U RECEPTOR AGONISTS AND USES THEREOF” (priority 2006, published 2010):
Non-standard residues stand in square brackets, D forms with d. Residues, ends and D or L forms follow the SMILES beside them. No end group written: not given here. *: point of attachment. Succinimide(1-Et,3-yl) = CCN1C(=O)CC(*)C1=O; hArg = N=C(N)NCCCC[C@H](N)C(=O)O; dNle = CCCC[C@@H](N)C(=O)O

Target: T1, hNMUR1 (Homo sapiens, UniProt Q9HB89)
T1 sequence (Q9HB89 1-426): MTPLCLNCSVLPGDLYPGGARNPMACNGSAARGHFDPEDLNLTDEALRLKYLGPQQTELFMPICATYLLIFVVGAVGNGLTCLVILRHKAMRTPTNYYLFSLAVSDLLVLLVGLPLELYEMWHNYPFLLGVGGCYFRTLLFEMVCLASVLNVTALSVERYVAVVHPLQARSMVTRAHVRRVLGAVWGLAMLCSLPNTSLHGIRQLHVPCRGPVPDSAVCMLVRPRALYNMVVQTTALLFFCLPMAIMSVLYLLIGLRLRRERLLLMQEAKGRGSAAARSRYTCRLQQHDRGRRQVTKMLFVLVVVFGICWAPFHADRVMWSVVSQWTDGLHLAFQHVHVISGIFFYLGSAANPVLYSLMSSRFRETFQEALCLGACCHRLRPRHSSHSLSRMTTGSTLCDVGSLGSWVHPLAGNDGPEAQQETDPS
Assay: 125I-hNMU-25 binding assay, human NMUR1 membranes
Parameters: expressed in transfected cells; host or cells: HEK-293 FLP-In cells (pcDNA5); HEK-293/aeq17 lines (pIRES-puro) were also made; % inhibition of NMU-25 binding / % Activity: concentration or dose not given beside the values
Experimental: Confluent cell monolayers expressing NMU receptors (the HEK cells described above) were harvested with phosphate buffered saline, collected by centrifugation, and resuspended in membrane buffer (50 mM TrisCl pH 7.4, 5 mM MgCl2, 1× Protease Inhibitor Cocktail, 10 μM phosphoramidon). After the cell pellet was homogenized, the solution was centrifuged at 18,000 rpm for 20 minutes at 4° C. The pellet was resuspended in membrane buffer to yield a final concentration of 0.5-5 μg/μL of membrane and stored at −80° C.
Experiments were performed in assay buffer (25 mM TrisCl, pH 7.4, 10 mM MgCl2, 2 mM EDTA, 1× Protease Inhibitor Cocktail, 100 μg/mL Bacitricin, 10 μM phosphoramidon) in 200 μL volumes in a 96-well format using 2-5 μg of membrane and 0.1 nM ^125I-hNMU-25 (about 12,000 cpm/well). For non-specific binding, 1 μM hNMU-25 was added. About 5 μL of peptides were added to measure antagonist activity, and the entire reaction was incubated at room temperature with shaking for 80 minutes. The reaction was terminated by rapid filtration through 0.3% poly-ethylenimine presoaked Millipore 96-well filter plates and washed with ice-cold buffer (5 mM TrisCl pH 7.4, 10 mM MgCl2, 2.5 mM EDTA, 0.04% Triton X-100). Plates were air-dried overnight at room temperature and recovered radioactivity was determined by standard scintillation counting. IC50 values were determined using GraphPad Prism software.
Concentration-response curves and radioligand-binding data were fitted using Prism (GraphPad Software). Results are summarized below in Tables 8 and 9.

[1] = Table 8, HEK-hR1, second (binding) column pair

Compound	% Activity (Table 8, HEK-hR1, binding) [%]	% Activity (Table 9, HEK-hR1, binding) [%]	IC50 (Table 9, HEK-hR1, binding) [nM]	further results
CC(C)C[C@@H](NC(=O)[C@H](Cc1ccccc1)NC(=O)[C@@H](N)Cc1ccc(O)cc1)C(=O)N[C@@H](Cc1c[nH]c2ccccc12)C(=O)N[C@@H](CCCNC(=N)N)C(=O)N1CCC[C@H]1C(=O)N[C@@H](CCCNC(=N)N)C(=O)N[C@@H](CC(N)=O)C(N)=O [Agonist B, YF-(D-L)-WRPRN-CONH2] (H-YF[dL]WRPRN-NH2)	96	–	–	–
C[C@@H](NC(=O)[C@H](Cc1ccccc1)NC(=O)[C@@H](N)Cc1ccc(O)cc1)C(=O)N[C@@H](Cc1c[nH]c2ccccc12)C(=O)N[C@@H](CCCNC(=N)N)C(=O)N1CCC[C@H]1C(=O)N[C@@H](CCCNC(=N)N)C(=O)N[C@@H](CC(N)=O)C(N)=O [Agonist D, YF-(D-A)-WRPRN-CONH2] (H-YF[dA]WRPRN-NH2; N-terminus assumed)	100	–	–	–
CC(=O)N[C@@H](Cc1ccccc1)C(=O)N[C@H](CC(C)C)C(=O)N[C@@H](Cc1c[nH]c2ccccc12)C(=O)N[C@@H](CCCNC(=N)N)C(=O)N1CCC[C@H]1C(=O)N[C@@H](CCCNC(=N)N)C(=O)N[C@@H](CC(N)=O)C(N)=O [Agonist E, Ac-F-(D-L)-WRPRN-CONH2] (Ac-F[dL]WRPRN-NH2)	93	–	–	–
CC(C)C[C@@H](NC(=O)[C@H](Cc1ccccc1)NC(=O)[C@H](Cc1ccc(O)cc1)NC(=O)CNC(=O)[C@H](CCCNC(=N)N)NC(=O)[C@H](CO)NC(=O)[C@H](CCC(N)=O)NC(=O)[C@H](CO)NC(=O)[C@H](C)NC(=O)[C@H](Cc1ccccc1)NC(=O)[C@@H]1CCCN1C(=O)[C@H](CO)NC(=O)[C@H](CCC(N)=O)NC(=O)[C@H](Cc1ccccc1)NC(=O)[C@H](CCC(=O)O)NC(=O)[C@H](CCC(=O)O)NC(=O)[C@H](CC(=O)O)NC(=O)[C@@H](NC(=O)[C@H](CCCNC(=N)N)NC(=O)[C@@H](N)Cc1ccccc1)C(C)C)C(=O)N[C@@H](Cc1c[nH]c2ccccc12)C(=O)N[C@@H](CCCNC(=N)N)C(=O)N1CCC[C@H]1C(=O)N[C@@H](CCCNC(=N)N)C(=O)N[C@@H](CC(N)=O)C(N)=O [Agonist H] (H-FRVDEEFQSPFASQSRGYF[dL]WRPRN-NH2; N-terminus assumed)	93	–	–	IC50 (binding, human R1): 1.1 nM; % inhibition of NMU-25 binding (human R1): 93%
CC(C)C[C@H](NC(=O)[C@H](Cc1c[nH]c2ccccc12)NC(=O)[C@@H](N)Cc1ccccc1)C(=O)N[C@@H](Cc1ccccc1)C(=O)N[C@@H](CCCNC(=N)N)C(=O)N1CCC[C@H]1C(=O)N[C@@H](CCCCNC(=N)N)C(=O)N[C@@H](CC(N)=O)C(N)=O [Agonist I, FWLFRP-(Harg)-N-CONH2] (H-FWLFRP[hArg]N-NH2)	–	23	> 1000	–
CC(C)C[C@H](NC(=O)[C@H](Cc1c[nH]c2ccccc12)NC(=O)[C@@H](N)Cc1ccccc1)C(=O)N[C@@H](Cc1ccccc1)C(=O)N[C@@H](CCCNC(=N)N)C(=O)N[C@@H](C)C(=O)N[C@@H](CCCCNC(=N)N)C(=O)N[C@@H](CC(N)=O)C(N)=O [Agonist J, FWLFRA-(Harg)-N-CONH2] (H-FWLFRA[hArg]N-NH2)	–	34	> 1000	–
CCCC[C@@H](NC(=O)[C@H](CCCNC(=N)N)NC(=O)[C@H](C)NC(=O)[C@H](CCCNC(=N)N)NC(=O)[C@H](Cc1ccccc1)NC(=O)[C@H](CC(C)C)NC(=O)[C@H](Cc1ccccc1)NC(=O)[C@@H](N)Cc1c[nH]c2ccccc12)C(N)=O [Agonist K, WFLFRAR-(D-Nle)-CONH2] (H-WFLFRAR[dNle]-NH2)	–	25	> 1000	–
CC(C)C[C@H](NC(=O)[C@H](Cc1c[nH]c2ccccc12)NC(=O)[C@H](Cc1ccccc1)NC(=O)CNC(=O)[C@H](CCCNC(=N)N)NC(=O)[C@H](CO)NC(=O)[C@H](CCC(N)=O)NC(=O)[C@H](CO)NC(=O)[C@H](C)NC(=O)[C@H](Cc1ccccc1)NC(=O)[C@@H]1CCCN1C(=O)[C@H](CO)NC(=O)[C@H](CCC(N)=O)NC(=O)[C@H](Cc1ccccc1)NC(=O)[C@H](CCC(=O)O)NC(=O)[C@H](CCC(=O)O)NC(=O)[C@H](CC(=O)O)NC(=O)[C@@H](NC(=O)[C@H](CCCNC(=N)N)NC(=O)[C@@H](N)Cc1ccccc1)C(C)C)C(=O)N[C@@H](Cc1ccccc1)C(=O)N[C@@H](CCCNC(=N)N)C(=O)N1CCC[C@H]1C(=O)N[C@@H](CCCCNC(=N)N)C(=O)N[C@@H](CC(N)=O)C(N)=O [Agonist O] (H-FRVDEEFQSPFASQSRGFWLFRP[hArg]N-NH2; N-terminus assumed)	–	64	400	–
CC(C)C[C@H](NC(=O)[C@H](Cc1c[nH]c2ccccc12)NC(=O)[C@H](Cc1ccccc1)NC(=O)CNC(=O)[C@H](CCCNC(=N)N)NC(=O)[C@H](CO)NC(=O)[C@H](CCC(N)=O)NC(=O)[C@H](CO)NC(=O)[C@H](C)NC(=O)[C@H](Cc1ccccc1)NC(=O)[C@@H]1CCCN1C(=O)[C@H](CO)NC(=O)[C@H](CCC(N)=O)NC(=O)[C@H](Cc1ccccc1)NC(=O)[C@H](CCC(=O)O)NC(=O)[C@H](CCC(=O)O)NC(=O)[C@H](CC(=O)O)NC(=O)[C@@H](NC(=O)[C@H](CCCNC(=N)N)NC(=O)[C@@H](N)Cc1ccccc1)C(C)C)C(=O)N[C@@H](Cc1ccccc1)C(=O)N[C@@H](CCCNC(=N)N)C(=O)N[C@@H](C)C(=O)N[C@@H](CCCCNC(=N)N)C(=O)N[C@@H](CC(N)=O)C(N)=O [Agonist P] (H-FRVDEEFQSPFASQSRGFWLFRA[hArg]N-NH2; N-terminus assumed)	–	1	> 1000	–
CCCC[C@@H](NC(=O)[C@H](CCCNC(=N)N)NC(=O)[C@@H]1CCCN1C(=O)[C@H](CCCNC(=N)N)NC(=O)[C@H](Cc1ccccc1)NC(=O)[C@H](CC(C)C)NC(=O)[C@H](Cc1c[nH]c2ccccc12)NC(=O)[C@H](Cc1ccccc1)NC(=O)CNC(=O)[C@H](CCCNC(=N)N)NC(=O)[C@H](CO)NC(=O)[C@H](CCC(N)=O)NC(=O)[C@H](CO)NC(=O)[C@H](C)NC(=O)[C@H](Cc1ccccc1)NC(=O)[C@@H]1CCCN1C(=O)[C@H](CO)NC(=O)[C@H](CCC(N)=O)NC(=O)[C@H](Cc1ccccc1)NC(=O)[C@H](CCC(=O)O)NC(=O)[C@H](CCC(=O)O)NC(=O)[C@H](CC(=O)O)NC(=O)[C@@H](NC(=O)[C@H](CCCNC(=N)N)NC(=O)[C@@H](N)Cc1ccccc1)C(C)C)C(N)=O [Agonist Q] (H-FRVDEEFQSPFASQSRGFWLFRPR[dNle]-NH2)	–	16	> 1000	–
CCN1C(=O)CC(SC[C@H](NC(C)=O)C(=O)N[C@@H](Cc2ccccc2)C(=O)N[C@@H](CCCNC(=N)N)C(=O)N[C@H](C(=O)N[C@@H](CC(=O)O)C(=O)N[C@@H](CCC(=O)O)C(=O)N[C@@H](CCC(=O)O)C(=O)N[C@@H](Cc2ccccc2)C(=O)N[C@@H](CCC(N)=O)C(=O)N[C@@H](CO)C(=O)N2CCC[C@H]2C(=O)N[C@@H](Cc2ccccc2)C(=O)N[C@@H](C)C(=O)N[C@@H](CO)C(=O)N[C@@H](CCC(N)=O)C(=O)N[C@@H](CO)C(=O)N[C@@H](CCCNC(=N)N)C(=O)NCC(=O)N[C@@H](Cc2ccc(O)cc2)C(=O)N[C@@H](Cc2ccccc2)C(=O)N[C@H](C)C(=O)N[C@@H](Cc2c[nH]c3ccccc23)C(=O)N[C@@H](CCCNC(=N)N)C(=O)N2CCC[C@H]2C(=O)N[C@@H](CCCNC(=N)N)C(=O)N[C@@H](CC(N)=O)C(N)=O)C(C)C)C1=O (stereo partly shown) [NMU13] (Ac-C(Succinimide(1-Et,3-yl))FRVDEEFQSPFASQSRGYF[dA]WRPRN-NH2)	–	–	–	% inhibition of NMU-25 binding (human R1): 100%
CC(C)C[C@H](NC(=O)[C@H](Cc1ccccc1)NC(=O)[C@@H](N)Cc1ccc(O)cc1)C(=O)N[C@@H](Cc1ccccc1)C(=O)N[C@@H](CCCNC(=N)N)C(=O)N1CCC[C@H]1C(=O)N[C@@H](CCCNC(=N)N)C(=O)N[C@@H](CC(N)=O)C(N)=O [NMU-8, reference compound]	–	100	–	–
Ac-FFRPRN-NH2 [Agonist F, Ac-FFRPRN-CONH2]	30	–	–	IC50 [1]: > 1000 nM
FALFRPRN-NH2 [Agonist N]	–	38.4	> 1000	–
H-FRVDEEFQSPFASQSRGYFLFRPRN-NH2 [hNMU-25, reference compound]	–	100	–	IC50 (binding, human R1): 0.14 nM
H-FRVDEEFQSPFASQSRGYFWRPRN-NH2 [Agonist G]	97	–	–	–
H-FWLFRARN-NH2 [Agonist L]	–	0	> 1000	–
H-YFGWRPRN-NH2 [Agonist C]	100	–	–	–
WALFRARN-NH2 [Agonist M]	–	0	> 1000	–
YFWRPRN-NH2 [Agonist A, YFWRPRN-CONH2]	94	–	–	IC50 [1]: 10 nM
